Test results taken from article PMC5218480 (PLoS ONE, 2017).

Tested on: MV-4-11 cells
Experiment: Gene expression microarray analysis (Affymetrix PrimeView) and GSEA
Format: cell-based, human
Set-up: RFU PODN (11730768_x_at) / Fold change /veh PODN (11730768_x_at) / RFU LINC00158 (11744669_a_at) / Fold change /veh LINC00158 (11744669_a_at) / RFU DUSP10 (11751237_a_at) / Fold change /veh DUSP10 (11751237_a_at) / RFU ID3 (11757404_x_at) / Fold change /veh ID3 (11757404_x_at) / RFU PLEKHG5 (11737974_s_at) / Fold change /veh PLEKHG5 (11737974_s_at) / RFU LRRC4B (11730491_at) / Fold change /veh LRRC4B (11730491_at) / RFU GIMAP4 (11747438_a_at) / Fold change /veh GIMAP4 (11747438_a_at) / RFU KRT8 (11758183_x_at) / Fold change /veh KRT8 (11758183_x_at) / RFU CNN1 (11734310_a_at) / Fold change /veh CNN1 (11734310_a_at) / RFU VPS37D (11726825_at) / Fold change /veh VPS37D (11726825_at) / RFU C10orf10 (11716522_x_at) / Fold change /veh C10orf10 (11716522_x_at) / RFU KIR2DL2 /// KIR2DL4 /// KIR2DL5A /// KIR2DL5B /// KIR2DS1 /// KIR2DS2 /// KIR2DS3 /// KIR2DS4 /// KIR3DL3 /// KIR3DL3 /// KIR3DS1 (11738374_at) / Fold change /veh KIR2DL2 /// KIR2DL4 /// KIR2DL5A /// KIR2DL5B /// KIR2DS1 /// KIR2DS2 /// KIR2DS3 /// KIR2DS4 /// KIR3DL3 /// KIR3DL3 /// KIR3DS1 (11738374_at) / RFU C1QL1 (11718748_at) / Fold change /veh C1QL1 (11718748_at) / RFU TMPRSS4 (11747572_a_at) / Fold change /veh TMPRSS4 (11747572_a_at) / RFU HAMP (11756126_x_at) / Fold change /veh HAMP (11756126_x_at) / RFU RNFT2 (11725882_a_at) / Fold change /veh RNFT2 (11725882_a_at) / RFU NR4A2 (11747474_a_at) / Fold change /veh NR4A2 (11747474_a_at) / RFU ABCC12 (11746883_a_at) / Fold change /veh ABCC12 (11746883_a_at) / RFU TMEM136 (11760407_x_at) / Fold change /veh TMEM136 (11760407_x_at) / RFU CLDN22 /// WWC2 (11732394_at) / Fold change /veh CLDN22 /// WWC2 (11732394_at) / RFU HLA-DPB1 (11760878_x_at) / Fold change /veh HLA-DPB1 (11760878_x_at) / RFU SPINT1 (11716480_a_at) / Fold change /veh SPINT1 (11716480_a_at) / RFU GAP43 (11754022_s_at) / Fold change /veh GAP43 (11754022_s_at) / RFU A4GNT (11735810_at) / Fold change /veh A4GNT (11735810_at) / RFU PRB3 (11715151_x_at) / Fold change /veh PRB3 (11715151_x_at) / RFU TUBB4B (11761932_at) / Fold change /veh TUBB4B (11761932_at) / RFU CAPN14 (11732068_a_at) / Fold change /veh CAPN14 (11732068_a_at) / RFU TMCC2 (11721928_a_at) / Fold change /veh TMCC2 (11721928_a_at) / RFU IRGQ (11745062_a_at) / Fold change /veh IRGQ (11745062_a_at) / RFU FAM174B (11720279_a_at) / Fold change /veh FAM174B (11720279_a_at) / RFU TMPRSS4 (11748680_a_at) / Fold change /veh TMPRSS4 (11748680_a_at) / RFU FAM212B (11763350_a_at) / Fold change /veh FAM212B (11763350_a_at) / RFU PLEKHG5 (11743358_a_at) / Fold change /veh PLEKHG5 (11743358_a_at) / RFU ZSCAN30 (11745921_a_at) / Fold change /veh ZSCAN30 (11745921_a_at) / RFU CMKLR1 (11741424_a_at) / Fold change /veh CMKLR1 (11741424_a_at) / RFU LOC101060620 /// MAPK8IP1 (11723275_at) / Fold change /veh LOC101060620 /// MAPK8IP1 (11723275_at) / RFU SPTSSB (11747773_x_at) / Fold change /veh SPTSSB (11747773_x_at) / RFU PRSS12 (11739890_at) / Fold change /veh PRSS12 (11739890_at) / RFU BIN1 (11741810_x_at) / Fold change /veh BIN1 (11741810_x_at) / RFU WNT11 (11732464_a_at) / Fold change /veh WNT11 (11732464_a_at) / RFU C10orf10 (11716521_a_at) / Fold change /veh C10orf10 (11716521_a_at) / RFU C5orf56 (11738089_at) / Fold change /veh C5orf56 (11738089_at) / RFU CYB561 (11721691_x_at) / Fold change /veh CYB561 (11721691_x_at) / RFU ANKRD19P (11752326_a_at) / Fold change /veh ANKRD19P (11752326_a_at) / RFU OR2T12 /// OR2T33 /// OR2T8 (11738714_s_at) / Fold change /veh OR2T12 /// OR2T33 /// OR2T8 (11738714_s_at) / RFU VCAN (11748164_a_at) / Fold change /veh VCAN (11748164_a_at) / RFU JSRP1 (11732532_at) / Fold change /veh JSRP1 (11732532_at) / RFU KRTAP10-11 (11738290_x_at) / Fold change /veh KRTAP10-11 (11738290_x_at) / RFU MYO3A (11730013_a_at) / Fold change /veh MYO3A (11730013_a_at) / RFU EBF3 (11725865_a_at) / Fold change /veh EBF3 (11725865_a_at) / RFU CAMK2N1 (11719241_x_at) / Fold change /veh CAMK2N1 (11719241_x_at) / RFU C5orf56 (11738088_a_at) / Fold change /veh C5orf56 (11738088_a_at) / RFU OLFML3 (11715873_a_at) / Fold change /veh OLFML3 (11715873_a_at) / RFU LOC100653217 /// NTM (11731650_a_at) / Fold change /veh LOC100653217 /// NTM (11731650_a_at) / RFU MAPK11 (11762145_a_at) / Fold change /veh MAPK11 (11762145_a_at) / RFU FIZ1 (11724087_x_at) / Fold change /veh FIZ1 (11724087_x_at) / RFU OASL (11726364_x_at) / Fold change /veh OASL (11726364_x_at) / RFU SOX15 (11748057_x_at) / Fold change /veh SOX15 (11748057_x_at) / RFU CD79A (11719716_a_at) / Fold change /veh CD79A (11719716_a_at) / RFU HIST1H1D (11736915_at) / Fold change /veh HIST1H1D (11736915_at) / RFU CASKIN2 (11723855_a_at) / Fold change /veh CASKIN2 (11723855_a_at) / RFU LOC730098 (11760151_x_at) / Fold change /veh LOC730098 (11760151_x_at) / RFU OR4N2 (11742367_at) / Fold change /veh OR4N2 (11742367_at) / RFU PRRT2 (11749266_a_at) / Fold change /veh PRRT2 (11749266_a_at) / RFU SNX32 (11753110_a_at) / Fold change /veh SNX32 (11753110_a_at) / RFU CDHR5 (11726645_a_at) / Fold change /veh CDHR5 (11726645_a_at) / RFU RCAN1 (11760418_a_at) / Fold change /veh RCAN1 (11760418_a_at) / RFU FAM167A (11723789_a_at) / Fold change /veh FAM167A (11723789_a_at) / RFU FAM26E (11764081_at) / Fold change /veh FAM26E (11764081_at) / RFU ISYNA1 (11749810_s_at) / Fold change /veh ISYNA1 (11749810_s_at) / RFU ACY1 (11761880_at) / Fold change /veh ACY1 (11761880_at) / RFU 11764098_at / Fold change /veh 11764098_at / RFU SAMD14 (11745864_x_at) / Fold change /veh SAMD14 (11745864_x_at) / RFU NPB (11741838_a_at) / Fold change /veh NPB (11741838_a_at) / RFU TMPRSS6 (11731388_a_at) / Fold change /veh TMPRSS6 (11731388_a_at) / RFU KRTAP10-2 (11738614_at) / Fold change /veh KRTAP10-2 (11738614_at) / RFU ARHGAP8 /// PRR5-ARHGAP8 (11727945_x_at) / Fold change /veh ARHGAP8 /// PRR5-ARHGAP8 (11727945_x_at) / RFU KRTAP5-7 /// NADSYN1 (11734609_at) / Fold change /veh KRTAP5-7 /// NADSYN1 (11734609_at) / RFU RASL12 (11751679_a_at) / Fold change /veh RASL12 (11751679_a_at) / RFU CDKN2B (11736163_a_at) / Fold change /veh CDKN2B (11736163_a_at) / RFU PRF1 (11729649_at) / Fold change /veh PRF1 (11729649_at) / RFU, ZNF638 /// ZNF638-IT1 / Fold change vs veh, ZNF638 /// ZNF638-IT1 / RFU, PANK3 / Fold change vs veh, PANK3 / RFU, SH3YL1 / Fold change vs veh, SH3YL1 / RFU, ZEB2 / Fold change vs veh, ZEB2 / RFU, NRIP1 / Fold change vs veh, NRIP1 / RFU, PTTG1IP / Fold change vs veh, PTTG1IP / RFU, CAPN2 / Fold change vs veh, CAPN2 / RFU, MED14 / Fold change vs veh, MED14 / RFU, SNORA58 / Fold change vs veh, SNORA58 / RFU, C1orf63 / Fold change vs veh, C1orf63 / RFU, LRRFIP1 / Fold change vs veh, LRRFIP1 / RFU, NDUFAF7 / Fold change vs veh, NDUFAF7 / RFU, SLC12A2 / Fold change vs veh, SLC12A2 / RFU, IBTK / Fold change vs veh, IBTK / RFU, ESF1 / Fold change vs veh, ESF1 / Fold change vs veh, TMEM50B / RFU, TAOK1 / Fold change vs veh, TAOK1 / RFU, ACBD3 / Fold change vs veh, ACBD3 / RFU, TMA16 / Fold change vs veh, TMA16 / RFU, RWDD3 / Fold change vs veh, RWDD3 / RFU, BCAT1 / Fold change vs veh, BCAT1 / RFU, EDEM3 / Fold change vs veh, EDEM3 / RFU, TMEM33 / Fold change vs veh, TMEM33 / RFU, WDR75 / Fold change vs veh, WDR75 / RFU, AHCTF1 / Fold change vs veh, AHCTF1 / RFU, TFRC / Fold change vs veh, TFRC / RFU, ZDHHC17 / Fold change vs veh, ZDHHC17 / RFU, NOM1 / Fold change vs veh, NOM1 / RFU, ARL8B / Fold change vs veh, ARL8B / RFU, ZBTB11 / Fold change vs veh, ZBTB11 / RFU, TAMM41 / Fold change vs veh, TAMM41 / RFU, KIAA1704 /// LOC100996395 / Fold change vs veh, KIAA1704 /// LOC100996395 / RFU, ING1 / Fold change vs veh, ING1 / RFU, TRMT61B / Fold change vs veh, TRMT61B / RFU, FUBP3 / Fold change vs veh, FUBP3 / RFU, TP53 / Fold change vs veh, TP53 / RFU, TNKS2 / Fold change vs veh, TNKS2 / RFU, ZFP14 / Fold change vs veh, ZFP14 / RFU, ACTR2 / Fold change vs veh, ACTR2 / RFU, PPP3R1 / Fold change vs veh, PPP3R1 / RFU, PIK3R1 / Fold change vs veh, PIK3R1 / RFU, HNRNPA1 / Fold change vs veh, HNRNPA1 / RFU, RNF170 / Fold change vs veh, RNF170 / RFU, ZNF28 / Fold change vs veh, ZNF28 / RFU, RNGTT / Fold change vs veh, RNGTT / RFU, OGT / Fold change vs veh, OGT / RFU, BRD1 / Fold change vs veh, BRD1 / RFU, MARS / Fold change vs veh, MARS / RFU, ZNF655 / Fold change vs veh, ZNF655 / RFU, FAHD1 / Fold change vs veh, FAHD1 / RFU, BDP1 / Fold change vs veh, BDP1 / RFU, LRRCC1 / Fold change vs veh, LRRCC1 / RFU, ARID1A / Fold change vs veh, ARID1A / RFU, ZNF146 / Fold change vs veh, ZNF146 / RFU, ZNF330 / Fold change vs veh, ZNF330 / RFU, GPN3 / Fold change vs veh, GPN3 / RFU, C9orf123 / Fold change vs veh, C9orf123 / RFU, N4BP2L2 / Fold change vs veh, N4BP2L2 / RFU, ARFIP1 / Fold change vs veh, ARFIP1 / RFU, FAM179B / Fold change vs veh, FAM179B / RFU, BCL10 / Fold change vs veh, BCL10 / RFU, UHRF1BP1L / Fold change vs veh, UHRF1BP1L / RFU, BET1 / Fold change vs veh, BET1 / RFU, CNOT2 / Fold change vs veh, CNOT2 / RFU, ZNF268 / Fold change vs veh, ZNF268 / Fold change vs veh, ZNF507 / RFU, DGCR2 / Fold change vs veh, DGCR2 / RFU, WDSUB1 / Fold change vs veh, WDSUB1 / Fold change vs veh, HSP90B1 /// MIR3652 / RFU, ADSS / Fold change vs veh, ADSS / RFU, GK / Fold change vs veh, GK / RFU, ZNF148 / Fold change vs veh, ZNF148 / RFU, TAF9 / Fold change vs veh, TAF9 / RFU, SLC1A5 / Fold change vs veh, SLC1A5 / RFU, SLMO2 / Fold change vs veh, SLMO2 / RFU, ABCC4 / Fold change vs veh, ABCC4 / RFU, LOC101060439 /// RAP1B / Fold change vs veh, LOC101060439 /// RAP1B / RFU, RFX7 / Fold change vs veh, RFX7 / RFU, GTPBP10 / Fold change vs veh, GTPBP10 / RFU, CNEP1R1 / Fold change vs veh, CNEP1R1 / RFU, BIVM-ERCC5 /// ERCC5 / Fold change vs veh, BIVM-ERCC5 /// ERCC5 / RFU, ILF3 / Fold change vs veh, ILF3 / RFU 11762660_at / Fold change /veh 11762660_at / RFU VCAN (11757783_s_at) / Fold change /veh VCAN (11757783_s_at) / RFU DDX43 (11728927_at) / Fold change /veh DDX43 (11728927_at) / RFU KRT8 (11758188_x_at) / Fold change /veh KRT8 (11758188_x_at) / RFU NKD1 (11759106_at) / Fold change /veh NKD1 (11759106_at) / RFU SRD5A1 (11742802_a_at) / Fold change /veh SRD5A1 (11742802_a_at) / RFU TPSAB1 /// TPSB2 (11721975_s_at) / Fold change /veh TPSAB1 /// TPSB2 (11721975_s_at) / RFU GSTM3 (11746129_a_at) / Fold change /veh GSTM3 (11746129_a_at) / RFU IL23R (11737362_x_at) / Fold change /veh IL23R (11737362_x_at) / RFU TMEM51 (11727254_a_at) / Fold change /veh TMEM51 (11727254_a_at) / RFU PIWIL2 (11732686_x_at) / Fold change /veh PIWIL2 (11732686_x_at) / RFU ORM1 (11744905_x_at) / Fold change /veh ORM1 (11744905_x_at) / RFU CCDC152 (11743942_at) / Fold change /veh CCDC152 (11743942_at) / RFU ECM1 (11717891_a_at) / Fold change /veh ECM1 (11717891_a_at) / RFU IL23R (11748794_a_at) / Fold change /veh IL23R (11748794_a_at) / RFU TNFAIP8L3 (11732012_x_at) / Fold change /veh TNFAIP8L3 (11732012_x_at) / RFU MBOAT4 (11741988_at) / Fold change /veh MBOAT4 (11741988_at) / RFU 11764193_at / Fold change /veh 11764193_at / RFU TMEM53 (11763286_at) / Fold change /veh TMEM53 (11763286_at) / RFU MAGEB2 (11727129_at) / Fold change /veh MAGEB2 (11727129_at) / RFU TMEM200A (11744735_a_at) / Fold change /veh TMEM200A (11744735_a_at) / RFU CCDC152 (11751479_a_at) / Fold change /veh CCDC152 (11751479_a_at) / RFU FAM211A (11726209_a_at) / Fold change /veh FAM211A (11726209_a_at) / RFU RGS16 (11746705_a_at) / Fold change /veh RGS16 (11746705_a_at) / RFU VCAN (11755009_s_at) / Fold change /veh VCAN (11755009_s_at) / RFU RHOB (11743442_s_at) / Fold change /veh RHOB (11743442_s_at) / RFU RGS16 (11720943_a_at) / Fold change /veh RGS16 (11720943_a_at) / RFU RGS16 (11720944_at) / Fold change /veh RGS16 (11720944_at) / RFU, VPS4B / Fold change vs veh, VPS4B / RFU, CREB1 / Fold change vs veh, CREB1 / RFU, DNAJC13 / Fold change vs veh, DNAJC13 / RFU, GNAQ / Fold change vs veh, GNAQ / RFU, CDK5R1 / Fold change vs veh, CDK5R1 / RFU, ZRANB3 / Fold change vs veh, ZRANB3 / RFU, CUL4A / Fold change vs veh, CUL4A / RFU, CCNY / Fold change vs veh, CCNY / RFU, UFL1 / Fold change vs veh, UFL1 / RFU, COG3 / Fold change vs veh, COG3 / RFU, DIAPH2 / Fold change vs veh, DIAPH2 / RFU, SKA2 / Fold change vs veh, SKA2 / RFU, AFF3 / Fold change vs veh, AFF3 / RFU, LMF1 / Fold change vs veh, LMF1 / RFU, IPO11 / Fold change vs veh, IPO11 / RFU, DFFB / Fold change vs veh, DFFB / RFU, FOXP1 / Fold change vs veh, FOXP1 / RFU, CARD8 / Fold change vs veh, CARD8 / RFU, STRN3 / Fold change vs veh, STRN3 / RFU, ADK / Fold change vs veh, ADK / RFU, RASSF2 / Fold change vs veh, RASSF2 / RFU, WIPF1 / Fold change vs veh, WIPF1 / RFU, LARP1B / Fold change vs veh, LARP1B / RFU, RASA1 / Fold change vs veh, RASA1 / RFU, RB1 / Fold change vs veh, RB1 / RFU, PPFIA1 / Fold change vs veh, PPFIA1 / RFU, MAT2A / Fold change vs veh, MAT2A / RFU, CCT5 / Fold change vs veh, CCT5 / RFU, WDR92 / Fold change vs veh, WDR92 / RFU, CUX1 / Fold change vs veh, CUX1 / RFU, TTC7A / Fold change vs veh, TTC7A / RFU, TMEM135 / Fold change vs veh, TMEM135 / RFU, DEPTOR / Fold change vs veh, DEPTOR / RFU, CPM / Fold change vs veh, CPM / RFU, DNAJB6 / Fold change vs veh, DNAJB6 / RFU, CACNA2D3 / Fold change vs veh, CACNA2D3 / RFU, DTX4 / Fold change vs veh, DTX4 / RFU, TFCP2 / Fold change vs veh, TFCP2 / RFU, GMCL1 /// GMCL1P1 / Fold change vs veh, GMCL1 /// GMCL1P1 / RFU, AEBP2 / Fold change vs veh, AEBP2 / RFU, SNHG1 /// SNORD22 /// SNORD25 /// SNORD26 /// SNORD27 /// SNORD28 /// SNORD29 /// SNORD31 / Fold change vs veh, SNHG1 /// SNORD22 /// SNORD25 /// SNORD26 /// SNORD27 /// SNORD28 /// SNORD29 /// SNORD31 / Fold change (Aza/veh), C12orf56 (ProbeSet 11735607_a_at) / Fold change (ACY-1035/veh), C12orf56 (ProbeSet 11735607_a_at) / Fold change (Aza/veh), FGFR1OP (ProbeSet 11751329_s_at) / Fold change (ACY-1035/veh), FGFR1OP (ProbeSet 11751329_s_at) / Fold change (Aza/veh), VPS36 (ProbeSet 11739960_a_at) / Fold change (ACY-1035/veh), VPS36 (ProbeSet 11739960_a_at) / RFU SYPL1 (11715823_x_at) / Fold change /veh SYPL1 (11715823_x_at) / RFU IGFBP7 (11715501_s_at) / Fold change /veh IGFBP7 (11715501_s_at) / RFU REEP3 (11722064_at) / Fold change /veh REEP3 (11722064_at) / RFU IGLL1 (11728026_x_at) / Fold change /veh IGLL1 (11728026_x_at): dose or concentration left out as unconfirmed
Details: MV-4-11 cells, 48 hours

Nc1ncn([C@@H]2O[C@H](CO)[C@@H](O)[C@H]2O)c(=O)n1 [azacitidine]
Fold change /veh OR4N2 (11742367_at): 1.01
